{"source": "patent US20090234122A1", "about": "“CYANINE DYE AND OPTICAL RECORDING MEDIUM” (priority 2005, published 2009)", "type_in_all_cases": "physicochemical", "key": {"[1]": {"experiment": "Lightfastness of cyanine dye thin membranes under xenon lamp irradiation", "conditions": "thin membrane on glass, 180 W/m^2, 5.5 hours", "description": "The solution was in conventional manner dropped to homogeneity over the surface of either side of a polished glass substrate, 5 cm×5 cm, followed by rotating the glass substrate at a rate of 1,000 rpm/min for one minute to homogeneously apply the solution over the substrate and then drying the substrate by blowing hot air or cold air in this order to form a thin membrane of any one of the cyanine dyes of the present invention.\nThe cyanine dyes were measured for transmittance (T0) at the wavelengths of their absorption maxima (about 450 nm), while a 7.5 W xenon lamp was fixed apart from the glass substrate at a prescribed intervals and irradiated therewith (irradiated energy of 180 W/m^2 when measured on the surface of the substrate) for 5.5 hours while blowing cold air to the substrate. Thereafter, the substrates were immediately measured for transmittance (T) at the wavelengths of absorption maxima of the cyanine dyes and the residual percentages (%) thereof were calculated by assigning the obtained transmittances T and T0 the equation 1. In parallel, similarly as in the above, thin membranes, as controls 1 to 4, formed with any one of the compounds represented by Chemical Formulae 33, 37, 40 and 41; thin membranes, as controls 5 to 8, formed with any one of the compounds represented by Chemical Formulae 33, 37, 40 and 41 in combination with the azo metal complex presented by Chemical Formula 34 as a light resistant improver; and thin membranes, as controls 9 to 10, formed with any one of the compounds represented by Chemical Formulae 42 and 43, and these thin membranes were similarly treated as in the above, and measured for transmittances T and T0 at wavelengths of their absorption maxima for use as controls."}, "[2]": {"experiment": "Decomposition point on DSC analysis", "conditions": "onset temperature of exothermic peak induced by decomposition", "source_text": "The decomposition points of organic dye compounds such as cyanine dyes can be determined on, for example, commonly used differential scanning calorimetric analysis (abbreviated as “DSC”, hereinafter).\nThe melting point means a peak top temperature of endothermic peak during temperature increase on DSC analysis, while the decomposition point means an onset temperature of exothermic peak induced by decomposition during temperature increase on DSC analysis. These are applicable to the following measurements."}, "[3]": {"experiment": "Solubility in organic solvents at 20° C.", "conditions": "N,N-dimethylformamide, methanol, TFP, methylethylketone, acetonitrile, chloroform"}, "[4]": {"conditions": "transmittance at absorption maximum (about 450 nm), lightfastness improver: Non"}, "[5]": {"conditions": "in combination with lightfastness improver Chemical Formula 34 (azo metal complex)"}}, "data": [{"molecule": "CN1C(=CC2=[N+](C)c3ccccc3C2(C)Cc2ccccc2)C(C)(C)c2ccccc21", "note": "(stereo not shown) [Chemical Formula 20]", "values": [{"measurement": "Residual percentage (%) of dye", "setting": "[1]; [4]", "value": 99.1, "unit": "%"}, {"measurement": "decomposition point", "setting": "[2]", "value": "~273", "unit": "°C"}, {"measurement": "solubility in organic solvents", "setting": "[3]", "value": "satisfactory solubilities with no actual hindrance"}]}, {"molecule": "CCN1C(=CC2=[N+](CC)c3ccccc3C2(C)Cc2ccccc2)C(C)(Cc2ccccc2)c2ccccc21", "note": "(stereo not shown) [Chemical Formula 33]", "values": [{"measurement": "Residual percentage (%) of dye", "setting": "[1]; [5]", "value": 89.9, "unit": "%"}, {"measurement": "Residual percentage (%) of dye", "setting": "[1]; [4]", "value": 29.4, "unit": "%"}, {"measurement": "decomposition point", "setting": "[2]", "value": "around 212 °C"}]}, {"molecule": "CN1C(=CC2=[N+](C)c3ccccc3C2(C)Cc2ccccc2)C(C)(C)c2ccccc21", "note": "(stereo not shown) [Chemical Formula 37]", "values": [{"measurement": "Residual percentage (%) of dye", "setting": "[1]; [5]", "value": 90.3, "unit": "%"}, {"measurement": "Residual percentage (%) of dye", "setting": "[1]; [4]", "value": 31.2, "unit": "%"}, {"measurement": "decomposition point", "setting": "[2]", "value": "around 238 °C"}]}, {"molecule": "CN1C(=CC2=[N+](C)c3ccccc3C23CCCCC3)C2(CCCCC2)c2ccccc21", "note": "[Chemical Formula 40]", "values": [{"measurement": "Residual percentage (%) of dye", "setting": "[1]; [5]", "value": 91.5, "unit": "%"}, {"measurement": "Residual percentage (%) of dye", "setting": "[1]; [4]", "value": 35.6, "unit": "%"}, {"measurement": "decomposition point", "setting": "[2]", "value": "around 227 °C"}]}, {"molecule": "CN1C(=CC2=[N+](C)c3ccccc3C23CCCCC3)C(C)(C)c2ccccc21", "note": "[Chemical Formula 41]", "values": [{"measurement": "Residual percentage (%) of dye", "setting": "[1]; [5]", "value": 93.8, "unit": "%"}, {"measurement": "Residual percentage (%) of dye", "setting": "[1]; [4]", "value": 33.8, "unit": "%"}, {"measurement": "decomposition point", "setting": "[2]", "value": "around 240 °C"}]}, {"molecule": "CN1C(=CC2=[N+](C)c3ccccc3C2(C)C)C(C)(C)c2ccccc21", "note": "[Chemical Formula 42]", "values": [{"measurement": "Residual percentage (%) of dye", "setting": "[1]; [4]", "value": 15.3, "unit": "%"}]}]}
